In patent US8450313B2, “2,3-diaryl- or heteroaryl-substituted 1,1,1-trifluoro-2-hydroxypropyl compounds” (Hoffmann-La Roche Inc., priority 2009, dated 2013):

These compounds were tested against T1, full length human recombinant glucocorticoid receptor (Homo sapiens, UniProt P04150) (assay: Glucocorticoid Receptor Binding Assay (Glucocorticoid Receptor Competitor Assay far red kit, fluorescence polarization)). Details: competition with fluorescent GR ligand Fluormone GS Far Red, 3 hours at 22° C., pH 7.4; Ki calculated from IC50 by Cheng-Prusoff.
T1 construct: It contains some partially purified full length human recombinant glucocorticoid receptor; purchased Panvera/Invitrogen PV4302
T1 sequence (P04150 1-777): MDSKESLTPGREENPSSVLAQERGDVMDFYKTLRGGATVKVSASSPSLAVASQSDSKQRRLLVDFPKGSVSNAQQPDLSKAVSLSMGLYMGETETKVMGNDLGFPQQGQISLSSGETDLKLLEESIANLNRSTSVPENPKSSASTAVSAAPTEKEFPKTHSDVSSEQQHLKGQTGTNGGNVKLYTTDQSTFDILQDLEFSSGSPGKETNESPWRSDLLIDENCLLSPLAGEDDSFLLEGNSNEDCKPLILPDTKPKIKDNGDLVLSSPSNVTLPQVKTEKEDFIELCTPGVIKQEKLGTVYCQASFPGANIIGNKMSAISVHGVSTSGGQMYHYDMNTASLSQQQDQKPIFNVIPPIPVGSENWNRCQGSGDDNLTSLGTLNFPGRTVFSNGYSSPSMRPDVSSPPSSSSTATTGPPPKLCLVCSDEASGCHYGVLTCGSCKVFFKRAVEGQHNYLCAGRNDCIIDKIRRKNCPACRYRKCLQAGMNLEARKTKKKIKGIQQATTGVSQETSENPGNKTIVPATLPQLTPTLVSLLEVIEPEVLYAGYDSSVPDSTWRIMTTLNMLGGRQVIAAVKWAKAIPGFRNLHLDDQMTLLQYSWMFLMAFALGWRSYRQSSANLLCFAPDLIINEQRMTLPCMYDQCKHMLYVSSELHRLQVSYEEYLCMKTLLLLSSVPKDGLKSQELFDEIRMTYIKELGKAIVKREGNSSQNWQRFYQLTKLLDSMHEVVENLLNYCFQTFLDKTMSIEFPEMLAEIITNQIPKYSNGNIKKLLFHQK
Outline: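 Fluorescence polarization competition with partially purified full-length human recombinant GR, stabilizing peptide and Fluormone GS Far Red tracer in screening buffer pH 7.4; 3 hours at 22° C in the dark, read at 610–660 nm. IC50 from sigmoidal fit; Ki by Cheng-Prusoff.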

Going from `C[C@H](c1ccc(Oc2ccc(C(=O)O)cn2)cc1Cl)[C@@](O)(c1ccc2c(c1)OCC(=O)N2C)C(F)(F)F` (relative stereo) [Example 169, 6-{3-Chloro-4-[3,3,3-trifluoro-2-hydroxy-1-methyl-2-(4-methyl-3-oxo-3,4-dihydro-2H-benzo[1,4]oxazin-7-yl)-propyl]-phenoxy}-nicotinic acid] to `COC(=O)c1ccc(Oc2ccc([C@@H](C)[C@@](O)(c3ccc4oc(=O)n(C)c4c3)C(F)(F)F)c(Cl)c2)nc1` (relative stereo) [Example 174, 6-{3-Chloro-4-[3,3,3-trifluoro-2-hydroxy-1-methyl-2-(3-methyl-2-oxo-2,3-dihydro-benzooxazol-5-yl)-propyl]-phenoxy}-nicotinic acid methyl ester], the Ki falls from 28.2 nM to 2 nM (14-fold). The second binds more tightly here.

`C[C@H](c1ccc(O)cc1Cl)[C@@](O)(c1ccc2oc(=O)n(C)c2c1)C(F)(F)F` (relative stereo) [Example 172, 5-[2-(2-Chloro-4-hydroxy-phenyl)-1-hydroxy-1-trifluoromethyl-propyl]-3-methyl-3H-benzooxazol-2-one] and `C[C@H](c1ccc(-c2cncnc2)cc1Cl)[C@@](O)(c1ccc2oc(=O)n(C)c2c1)C(F)(F)F` (relative stereo) [Example 194, 5-[2-(2-Chloro-4-pyrimidin-5-yl-phenyl)-1-hydroxy-1-trifluoromethyl-propyl]-3-methyl-3H-benzooxazol-2-one] are within 1.5-fold of each other in Ki: 0.6 nM for the first, 0.7 nM for the second.

`C[C@H](c1ccc(Oc2ccc(C(=O)O)c(Cl)c2)cc1Cl)[C@@](O)(c1ccc2oc(=O)n(C)c2c1)C(F)(F)F` (relative stereo) [Example 173, 2-Chloro-4-{3-chloro-4-[3,3,3-trifluoro-2-hydroxy-1-methyl-2-(3-methyl-2-oxo-2,3-dihydro-benzooxazol-5-yl)-propyl]-phenoxy}-benzoic acid] and `C[C@H](c1ccc(Oc2ccc(C(=O)O)c(Cl)n2)cc1Cl)[C@@](O)(c1ccc2oc(=O)n(C)c2c1)C(F)(F)F` (relative stereo) [Example 184, 2-Chloro-6-{3-chloro-4-[3,3,3-trifluoro-2-hydroxy-1-methyl-2-(3-methyl-2-oxo-2,3-dihydro-benzooxazol-5-yl)-propyl]-phenoxy}-nicotinic acid] are within 1.5-fold of each other in Ki: 1.1 nM for the first, 0.8 nM for the second.

Compared with `COC(=O)c1cnc(Oc2ccc([C@@H](C)[C@@](O)(c3ccc4oc(=O)n(C)c4c3)C(F)(F)F)c(Cl)c2)c(Cl)c1` (relative stereo) [Example 175, 5-Chloro-6-{3-chloro-4-[3,3,3-trifluoro-2-hydroxy-1-methyl-2-(3-methyl-2-oxo-2,3-dihydro-benzooxazol-5-yl)-propyl]-phenoxy}-nicotinic acid methyl ester], `COC(=O)c1cnc(Oc2ccc([C@@H](C)[C@@](O)(c3ccc4oc(=O)n(C)c4c3)C(F)(F)F)c(Cl)c2)cc1Cl` (relative stereo) [Example 183, 4-Chloro-6-{3-chloro-4-[3,3,3-trifluoro-2-hydroxy-1-methyl-2-(3-methyl-2-oxo-2,3-dihydro-benzooxazol-5-yl)-propyl]-phenoxy}-nicotinic acid methyl ester] is 1.7-fold higher in Ki: 1.8 nM for the first, 3 nM for the second.

`COC(=O)c1ccc(Oc2ccc([C@@H](C)[C@@](O)(c3ccc4oc(=O)n(C)c4c3)C(F)(F)F)c(Cl)c2)cc1F` (relative stereo) [Example 176, 4-{3-Chloro-4-[3,3,3-trifluoro-2-hydroxy-1-methyl-2-(3-methyl-2-oxo-2,3-dihydro-benzooxazol-5-yl)-propyl]-phenoxy}-2-fluoro-benzoic acid methyl ester] and `COC(=O)c1ccc(Oc2ccc([C@@H](C)[C@@](O)(c3ccc4oc(=O)n(C)c4c3)C(F)(F)F)c(Cl)c2)nn1` (relative stereo) [Example 199, 6-{3-Chloro-4-[3,3,3-trifluoro-2-hydroxy-1-methyl-2-(3-methyl-2-oxo-2,3-dihydro-benzooxazol-5-yl)-propyl]-phenoxy}-pyridazine-3-carboxylic acid methyl ester] are within 1.5-fold of each other in Ki: 1.7 nM for the first, 2.1 nM for the second.

First: C[C@H](c1ccc(-c2ccc(F)c(C(=O)O)c2)cc1Cl)[C@@](O)(c1ccc2c(c1)oc(=O)n2C)C(F)(F)F (relative stereo) [Example 178, 3′-Chloro-4-fluoro-4′-[3,3,3-trifluoro-2-hydroxy-1-methyl-2-(3-methyl-2-oxo-2,3-dihydro-benzooxazol-6-yl)-propyl]-biphenyl-3-carboxylic acid]
Second: C[C@H](c1ccc(-c2ccc(C(=O)O)nc2)cc1Cl)[C@@](O)(c1ccc2oc(=O)n(C)c2c1)C(F)(F)F (relative stereo) [Example 189, 5-{3-Chloro-4-[3,3,3-trifluoro-2-hydroxy-1-methyl-2-(3-methyl-2-oxo-2,3-dihydro-benzooxazol-5-yl)-propyl]-phenyl}-pyridine-2-carboxylic acid]
The Ki of the first is 17-fold higher: 114 nM for the first, 6.6 nM for the second. The second binds more tightly here.

First: C[C@H](c1ccc(Oc2cc(Cl)c(C(=O)O)cn2)cc1Cl)[C@@](O)(c1ccc2oc(=O)n(C)c2c1)C(F)(F)F (relative stereo) [Example 185, 4-Chloro-6-{3-chloro-4-[3,3,3-trifluoro-2-hydroxy-1-methyl-2-(3-methyl-2-oxo-2,3-dihydro-benzooxazol-5-yl)-propyl]-phenoxy}-nicotinic acid]
Second: C[C@H](c1ccc(Oc2ccc(C(=O)O)nn2)cc1Cl)[C@@](O)(c1ccc2oc(=O)n(C)c2c1)C(F)(F)F (relative stereo) [Example 201, 6-{3-Chloro-4-[3,3,3-trifluoro-2-hydroxy-1-methyl-2-(3-methyl-2-oxo-2,3-dihydro-benzooxazol-5-yl)-propyl]-phenoxy}-pyridazine-3-carboxylic acid]
The Ki of the first is 5.6-fold lower: 0.7 nM for the first, 3.9 nM for the second.

`COC(=O)c1cncc(-c2ccc([C@@H](C)[C@@](O)(c3ccc4oc(=O)n(C)c4c3)C(F)(F)F)c(Cl)c2)c1` (relative stereo) [Example 186, 5-{3-Chloro-4-[3,3,3-trifluoro-2-hydroxy-1-methyl-2-(3-methyl-2-oxo-2,3-dihydro-benzooxazol-5-yl)-propyl]-phenyl}-nicotinic acid methyl ester] and `C[C@H](c1ccc(-c2cncc(C(=O)O)c2)cc1Cl)[C@@](O)(c1ccc2oc(=O)n(C)c2c1)C(F)(F)F` (relative stereo) [Example 191, 5-{3-Chloro-4-[3,3,3-trifluoro-2-hydroxy-1-methyl-2-(3-methyl-2-oxo-2,3-dihydro-benzooxazol-5-yl)-propyl]-phenyl}-nicotinic acid] are the same in Ki: 1.4 nM for the first, 1.4 nM for the second.

`COC(=O)c1ccc(-c2ccc([C@@H](C)[C@@](O)(c3ccc4oc(=O)n(C)c4c3)C(F)(F)F)c(Cl)c2)cn1` (relative stereo) [Example 187, 5-{3-Chloro-4-[3,3,3-trifluoro-2-hydroxy-1-methyl-2-(3-methyl-2-oxo-2,3-dihydro-benzooxazol-5-yl)-propyl]-phenyl}-pyridine-2-carboxylic acid methyl ester] and `CCOC(=O)c1cccc(-c2ccc([C@@H](C)[C@@](O)(c3ccc4oc(=O)n(C)c4c3)C(F)(F)F)c(Cl)c2)n1` (relative stereo) [Example 188, 6-{3-Chloro-4-[3,3,3-trifluoro-2-hydroxy-1-methyl-2-(3-methyl-2-oxo-2,3-dihydro-benzooxazol-5-yl)-propyl]-phenyl}-pyridine-2-carboxylic acid ethyl ester] are within 1.5-fold of each other in Ki: 2.1 nM for the first, 2.2 nM for the second.

First: C[C@H](c1ccc(-c2cccc(C(=O)O)n2)cc1Cl)[C@@](O)(c1ccc2oc(=O)n(C)c2c1)C(F)(F)F (relative stereo) [Example 190, 6-{3-Chloro-4-[3,3,3-trifluoro-2-hydroxy-1-methyl-2-(3-methyl-2-oxo-2,3-dihydro-benzooxazol-5-yl)-propyl]-phenyl}-pyridine-2-carboxylic acid]
Second: COC(=O)c1cnc(Oc2ccc([C@@H](C)[C@@](O)(c3ccc4oc(=O)n(C)c4c3)C(F)(F)F)c(Cl)c2)nc1 (relative stereo) [Example 202, 2-{3-Chloro-4-[3,3,3-trifluoro-2-hydroxy-1-methyl-2-(3-methyl-2-oxo-2,3-dihydro-benzooxazol-5-yl)-propyl]-phenoxy}-pyrimidine-5-carboxylic acid methyl ester]
The Ki of the first is 1.7-fold higher: 3 nM for the first, 1.8 nM for the second. The second binds more tightly here.

Going from `C[C@H](c1ccc(Br)cc1C(F)(F)F)[C@@](O)(c1ccc2oc(=O)n(C)c2c1)C(F)(F)F` (relative stereo) [Example 193, 5-[2-(4-Bromo-2-trifluoromethyl-phenyl)-1-hydroxy-1-trifluoromethyl-propyl]-3-methyl-3H-benzooxazol-2-one] to `COC(=O)c1ccc(-c2ccc([C@@H](C)[C@@](O)(c3ccc4oc(=O)n(C)c4c3)C(F)(F)F)c(C(F)(F)F)c2)cc1F` (relative stereo) [Example 198, 3-Fluoro-4′-[3,3,3-trifluoro-2-hydroxy-1-methyl-2-(3-methyl-2-oxo-2,3-dihydro-benzooxazol-5-yl)-propyl]-3′-trifluoromethyl-biphenyl-4-carboxylic acid methyl ester], the Ki rises from 0.9 nM to 1.7 nM (1.9-fold).
